# Assay results published in ChEMBL document CHEMBL6120985, “Discovery of a potent PARP1 PROTAC as a chemosensitizer for the treatment of colorectal cancer” (Eur J Med Chem, 2025).
# Calls of active or inactive are those of the source. The rule behind the calls is not given here.
# Legend:
# [1] = molecular target: T1, Protein cereblon/Poly [ADP-ribose] polymerase 1 (Homo sapiens, UniProt P09874+Q96SW2); assay: PROTAC activity at CRBN/PARP1 in human HCT-116 cells assessed as degradation of PARP1; type: cell-based
# Target sequence in this assay (P09874 whole entry): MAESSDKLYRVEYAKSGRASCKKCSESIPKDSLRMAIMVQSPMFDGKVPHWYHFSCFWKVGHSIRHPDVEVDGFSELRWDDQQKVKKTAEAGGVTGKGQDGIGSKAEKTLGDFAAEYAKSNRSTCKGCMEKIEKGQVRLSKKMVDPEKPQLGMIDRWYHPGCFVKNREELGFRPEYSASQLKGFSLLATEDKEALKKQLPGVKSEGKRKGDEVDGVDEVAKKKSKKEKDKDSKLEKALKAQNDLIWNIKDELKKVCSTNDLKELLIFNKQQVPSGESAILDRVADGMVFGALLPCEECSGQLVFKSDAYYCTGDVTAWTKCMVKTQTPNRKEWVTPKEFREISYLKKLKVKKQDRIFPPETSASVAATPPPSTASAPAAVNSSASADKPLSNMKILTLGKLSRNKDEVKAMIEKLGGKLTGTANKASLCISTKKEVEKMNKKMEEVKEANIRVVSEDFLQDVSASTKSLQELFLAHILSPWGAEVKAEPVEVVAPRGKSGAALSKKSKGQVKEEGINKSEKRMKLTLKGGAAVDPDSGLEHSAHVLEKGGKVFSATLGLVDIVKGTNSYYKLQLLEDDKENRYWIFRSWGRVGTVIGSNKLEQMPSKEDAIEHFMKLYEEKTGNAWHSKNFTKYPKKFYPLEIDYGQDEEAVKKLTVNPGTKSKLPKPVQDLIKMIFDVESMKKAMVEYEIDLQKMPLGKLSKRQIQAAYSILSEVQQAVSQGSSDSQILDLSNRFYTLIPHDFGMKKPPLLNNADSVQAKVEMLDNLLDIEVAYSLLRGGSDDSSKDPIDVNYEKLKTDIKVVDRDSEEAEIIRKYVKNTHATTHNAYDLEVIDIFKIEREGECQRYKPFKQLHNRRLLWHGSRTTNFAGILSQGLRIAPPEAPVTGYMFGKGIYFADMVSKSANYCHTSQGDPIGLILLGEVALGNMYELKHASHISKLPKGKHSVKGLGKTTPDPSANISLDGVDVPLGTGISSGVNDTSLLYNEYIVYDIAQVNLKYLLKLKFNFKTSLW
# Target sequence in this assay (Q96SW2 whole entry): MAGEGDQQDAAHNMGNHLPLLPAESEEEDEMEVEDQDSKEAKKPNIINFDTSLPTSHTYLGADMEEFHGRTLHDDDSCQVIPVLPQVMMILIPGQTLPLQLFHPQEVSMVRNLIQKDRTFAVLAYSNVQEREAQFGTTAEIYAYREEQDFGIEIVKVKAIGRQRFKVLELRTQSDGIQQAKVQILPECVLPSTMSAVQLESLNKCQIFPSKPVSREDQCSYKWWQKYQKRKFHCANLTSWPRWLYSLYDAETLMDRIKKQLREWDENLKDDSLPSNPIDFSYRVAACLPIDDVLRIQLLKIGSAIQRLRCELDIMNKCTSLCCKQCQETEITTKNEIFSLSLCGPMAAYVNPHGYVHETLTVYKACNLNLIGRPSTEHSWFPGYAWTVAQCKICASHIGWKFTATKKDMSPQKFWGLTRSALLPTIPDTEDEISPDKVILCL
# [2] = molecular target: T1, Protein cereblon/Poly [ADP-ribose] polymerase 1; assay: PROTAC activity at CRBN/PARP1 in human HCT-116 cells assessed as maximum degradation of PARP1 relative to control; type: cell-based
# Target sequence in this assay (P09874 2-1014 limits assumed): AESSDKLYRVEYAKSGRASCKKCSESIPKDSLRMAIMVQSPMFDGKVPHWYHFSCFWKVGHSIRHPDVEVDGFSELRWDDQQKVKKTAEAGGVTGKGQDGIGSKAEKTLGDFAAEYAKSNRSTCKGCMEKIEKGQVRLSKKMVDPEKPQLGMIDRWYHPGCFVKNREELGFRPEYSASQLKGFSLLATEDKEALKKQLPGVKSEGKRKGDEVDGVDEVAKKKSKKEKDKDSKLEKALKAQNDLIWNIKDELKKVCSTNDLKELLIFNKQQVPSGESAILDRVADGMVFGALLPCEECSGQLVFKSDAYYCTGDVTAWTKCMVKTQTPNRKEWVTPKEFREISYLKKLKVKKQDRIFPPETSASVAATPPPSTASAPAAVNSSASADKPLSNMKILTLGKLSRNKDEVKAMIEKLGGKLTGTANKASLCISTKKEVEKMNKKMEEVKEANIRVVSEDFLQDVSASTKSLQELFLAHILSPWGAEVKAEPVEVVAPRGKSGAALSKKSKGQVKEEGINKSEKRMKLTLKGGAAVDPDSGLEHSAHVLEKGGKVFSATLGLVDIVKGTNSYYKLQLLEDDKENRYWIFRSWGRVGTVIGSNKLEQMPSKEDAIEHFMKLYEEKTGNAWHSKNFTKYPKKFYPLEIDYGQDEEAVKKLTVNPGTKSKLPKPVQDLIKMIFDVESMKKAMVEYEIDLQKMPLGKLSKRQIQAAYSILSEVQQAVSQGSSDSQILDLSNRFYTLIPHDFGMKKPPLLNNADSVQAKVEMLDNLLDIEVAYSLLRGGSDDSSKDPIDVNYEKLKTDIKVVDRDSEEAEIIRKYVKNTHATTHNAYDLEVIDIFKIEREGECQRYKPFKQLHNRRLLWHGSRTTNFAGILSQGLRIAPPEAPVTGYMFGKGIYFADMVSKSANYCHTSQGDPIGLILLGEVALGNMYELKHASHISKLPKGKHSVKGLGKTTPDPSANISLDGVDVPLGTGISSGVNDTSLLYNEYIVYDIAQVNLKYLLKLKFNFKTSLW
# Target sequence in this assay (Q96SW2 whole entry partner): as the sequence (Q96SW2 whole entry) above
# [3] = molecular target: T1, Protein cereblon/Poly [ADP-ribose] polymerase 1; assay: PROTAC activity at CRBN/PARP1 in human HCT-116 cells assessed as degradation of PARP1 at upto 10 uM measured after 24 hrs relative to control; type: cell-based
# Target sequence in this assay (P09874 2-1014 limits assumed): as the sequence (P09874 2-1014 limits assumed) above
# Target sequence in this assay (Q96SW2 whole entry partner): as the sequence (Q96SW2 whole entry) above
# [4] = molecular target: T1, Protein cereblon/Poly [ADP-ribose] polymerase 1; assay: PROTAC activity at CRBN/PARP1 in human RKO cells assessed as degradation of PARP1 at upto 10 uM measured after 24 hrs relative to control; type: cell-based
# Target sequence in this assay (P09874 2-1014 limits assumed): as the sequence (P09874 2-1014 limits assumed) above
# Target sequence in this assay (Q96SW2 whole entry partner): as the sequence (Q96SW2 whole entry) above
# [5] = molecular target: T1, Protein cereblon/Poly [ADP-ribose] polymerase 1; assay: PROTAC activity at CRBN/PARP1 in human HCT-116 cells assessed as degradation of PARP1 at 1 uM in presence of MLN4924; type: cell-based
# Target sequence in this assay (P09874 2-1014 limits assumed): as the sequence (P09874 2-1014 limits assumed) above
# Target sequence in this assay (Q96SW2 whole entry partner): as the sequence (Q96SW2 whole entry) above
# [6] = molecular target: T1, Protein cereblon/Poly [ADP-ribose] polymerase 1; assay: PROTAC activity at CRBN/PARP1 in human HCT-116 cells assessed as degradation of PARP1 at 1 uM in presence of thalidomide; type: cell-based
# Target sequence in this assay (P09874 2-1014 limits assumed): as the sequence (P09874 2-1014 limits assumed) above
# Target sequence in this assay (Q96SW2 whole entry partner): as the sequence (Q96SW2 whole entry) above
# SW-620 = assay: Cytotoxicity against human SW620 cells assessed as inhibition of cell growth measured after 72 hrs by CCK-8 method; type: functional, cell-based; conditions: SW-620, 72 h
# LoVo = assay: Cytotoxicity against human LoVo cells assessed as inhibition of cell growth measured after 72 hrs by CCK-8 method; type: functional, cell-based
# [7] = Cytotoxicity against HEK293T cells assessed as inhibition of cell growth measured after 72 hrs by CCK-8 method; type: toxicity, cell-based, HEK-293T; conditions: human
# HCT-116 [8] = assay: Antagonistic antiproliferative activity against human HCT-116 cells assessed as combination index at 1 uM measured after 72 hrs in presence of 0.625 nM of SN-38 by CCK-8 method; type: functional
# HCT-116 [9] = assay: Synergistic antiproliferative activity against human HCT-116 cells assessed as combination index at 0.5 uM measured after 72 hrs in presence of 0.625 nM of SN-38 by CCK-8 method; type: functional
# HCT-116 [10] = assay: Synergistic antiproliferative activity against human HCT-116 cells assessed as combination index at 0.5 uM measured after 72 hrs in presence of 1.25 nM of SN-38 by CCK-8 method; type: functional
# HCT-116 [11] = assay: Synergistic antiproliferative activity against human HCT-116 cells assessed as combination index at 0.5 uM measured after 72 hrs in presence of 10 nM of SN-38 by CCK-8 method; type: functional
# HCT-116 [12] = assay: Synergistic antiproliferative activity against human HCT-116 cells assessed as combination index at 1 uM measured after 72 hrs in presence of 1.25 nM of SN-38 by CCK-8 method; type: functional
# HCT-116 [13] = assay: Synergistic antiproliferative activity against human HCT-116 cells assessed as combination index at 1 uM measured after 72 hrs in presence of 5 nM of SN-38 by CCK-8 method; type: functional
# HCT-116 [14] = assay: Antagonistic antiproliferative activity against human HCT-116 cells assessed as combination index at 2 uM measured after 72 hrs in presence of 0.625 nM of SN-38 by CCK-8 method; type: functional
# HCT-116 [15] = assay: Antagonistic antiproliferative activity against human HCT-116 cells assessed as combination index at 2 uM measured after 72 hrs in presence of 1.25 nM of SN-38 by CCK-8 method; type: functional
# HCT-116 [16] = assay: Synergistic antiproliferative activity against human HCT-116 cells assessed as combination index at 2 uM measured after 72 hrs in presence of 2.5 nM of SN-38 by CCK-8 method; type: functional
# HCT-116 [17] = assay: Synergistic antiproliferative activity against human HCT-116 cells assessed as combination index at 2 uM measured after 72 hrs in presence of 10 nM of SN-38 by CCK-8 method; type: functional
# HCT-116 [18] = assay: Synergistic antiproliferative activity against human HCT-116 cells assessed as combination index at 4 uM measured after 72 hrs in presence of 1.25 nM of SN-38 by CCK-8 method; type: functional
# HCT-116 [19] = assay: Synergistic antiproliferative activity against human HCT-116 cells assessed as combination index at 4 uM measured after 72 hrs in presence of 5 nM of SN-38 by CCK-8 method; type: functional
# HCT-116 [20] = assay: Induction of apoptosis in human HCT-116 cells assessed as viable cells at 1 uM measured after 72 hrs by annexin V/FITC and PI staining based flow cytometry analysis (reference value: 89.6%); type: functional; conditions: read-out: Activity
# HCT-116 [21] = assay: Induction of apoptosis in human HCT-116 cells assessed as viable cells at 1 uM measured after 72 hrs in presence of SN-38 by annexin V/FITC and PI staining based flow cytometry analysis (reference value: 89.6%); type: functional; conditions: read-out: Activity
# HCT-116 [22] = assay: Induction of apoptosis in human HCT-116 cells assessed as early apoptotic cells at 1 uM measured after 72 hrs by annexin V/FITC and PI staining based flow cytometry analysis (reference value: 3.43%); type: functional
# HCT-116 [23] = assay: Induction of apoptosis in human HCT-116 cells assessed as early apoptotic cells at 1 uM measured after 72 hrs in presence of SN-38 by annexin V/FITC and PI staining based flow cytometry analysis (reference value: 3.43%); type: functional
# HCT-116 [24] = assay: Induction of apoptosis in human HCT-116 cells assessed as late apoptotic cells at 1 uM measured after 72 hrs by annexin V/FITC and PI staining based flow cytometry analysis (reference value: 6.80%); type: functional
# HCT-116 [25] = assay: Induction of apoptosis in human HCT-116 cells assessed as late apoptotic cells at 1 uM measured after 72 hrs in presence of SN-38 by annexin V/FITC and PI staining based flow cytometry analysis (reference value: 6.80%); type: functional
# HCT-116 [26] = assay: Induction of apoptosis in human HCT-116 cells assessed as necrotic cells at 1 uM measured after 72 hrs by annexin V/FITC and PI staining based flow cytometry analysis (reference value: 0.16%); type: functional
# HCT-116 [27] = assay: Downregulation of HSPA2 level in human HCT-116 cells at 1 uM in presence of SN-38 by KEGG enrichment analysis; type: functional, cell-based
# HCT-116 [28] = assay: Downregulation of KRT1 level in human HCT-116 cells at 1 uM in presence of SN-38 by KEGG enrichment analysis; type: functional, cell-based
# HCT-116 [29] = assay: Effect on BRCA protein level in human HCT-116 cells at 1 uM in presence of SN-38 by Western blot analysis; type: functional, cell-based
# HCT-116 [30] = assay: Effect on DNA-PKcs protein level in human HCT-116 cells at 1 uM in presence of SN-38 by Western blot analysis; type: functional, cell-based
# HCT-116 [31] = assay: Effect on Ku70 protein level in human HCT-116 cells at 1 uM in presence of SN-38 by Western blot analysis; type: functional, cell-based
# HCT-116 [32] = assay: Downregulation of […] level in human HCT-116 cells at 1 uM in presence of SN-38 by Western blot analysis; type: functional, cell-based
# HCT-116 [33] = assay: Upregulation of CDK1 level in human HCT-116 cells at 1 uM in presence of SN-38 by Western blot analysis; type: functional, cell-based
smiles,measurement,setting,value
NC(=O)c1cccc2cn(-c3ccc([C@@H]4CCCN(CCC5CCN(CCC6CCN(CC7CCN(c8ccc9c(c8)C(=O)N(C8CCC(=O)NC8=O)C9=O)CC7)CC6)CC5)C4)cc3)nc12 (stereo not given in full),DC50,[1],0.03 µM
same,Emax,[2],86.2%
same,Emax,[3],96.5%
same,Emax,[4],95.9%
same,Activity,[5],inactive
same,Activity,[6],inactive
same,IC50,SW-620,1.63 µM
same,IC50,LoVo,2.84 µM
same,IC50 at 72 h,[7],4.13 µM
same,CI,HCT-116 [8],1.003
same,CI,HCT-116 [9],0.967
same,CI,HCT-116 [10],0.932
same,CI,HCT-116 [11],0.753
same,CI,HCT-116 [12],0.969
same,CI,HCT-116 [13],0.698
same,CI,HCT-116 [14],1.241
same,CI,HCT-116 [15],1.092
same,CI,HCT-116 [16],0.856
same,CI,HCT-116 [17],0.766
same,CI,HCT-116 [18],0.574
same,CI,HCT-116 [19],0.457
same,viability at 1 µM,HCT-116 [20],83.6%
same,viability at 1 µM,HCT-116 [21],58.2%
same,Activity,HCT-116 [22],4.03%
same,Activity,HCT-116 [23],11.9%
same,Activity,HCT-116 [24],10.4%
same,Activity,HCT-116 [25],19.7%
same,Activity,HCT-116 [26],2.01%
same,Activity,HCT-116 [27],Active
same,Activity,HCT-116 [28],Active
same,Activity,HCT-116 [29],inactive
same,Activity,HCT-116 [30],inactive
same,Activity,HCT-116 [31],inactive
same,Activity,HCT-116 [32],Active
same,Activity,HCT-116 [33],Active
